Data reported in PubChem BioAssay (NCI).
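Compound exposure: 48 hours, 5 concentrations, 96-well plates. TGI is the concentration that stops growth completely.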

Tests used:
Test in all cases: NCI anticancer screen, dose series, 48 h
[1] = tested on: NCI-H460 lung
[2] = tested on: K-562 leukemia
[3] = tested on: SNB-19 CNS
[4] = tested on: M14 melanoma
[5] = tested on: ACHN renal
[6] = tested on: CAKI-1 renal
[7] = tested on: SR leukemia
[8] = tested on: OVCAR-3 ovarian
[9] = tested on: EKVX NSCLC
[10] = tested on: SK-MEL-2 melanoma
[11] = tested on: A498 renal
[12] = tested on: RPMI-8226 leukemia
[13] = tested on: SN12C renal
[14] = tested on: SF-539 CNS
[15] = tested on: HT29 colon
[16] = tested on: KM20L2 colon
[17] = tested on: MOLT-4 leukemia
[18] = tested on: MALME-3M melanoma
[19] = tested on: MDA-N
[20] = tested on: HS 578T breast

Row | Compound | TGI [1] [µM] | TGI [2] [µM] | TGI [3] [µM] | TGI [4] [µM] | TGI [5] [µM] | TGI [6] [µM] | TGI [7] [µM] | TGI [8] [µM] | TGI [9] [µM] | TGI [10] [µM] | TGI [11] [µM] | TGI [12] [µM] | TGI [13] [µM] | TGI [14] [µM] | TGI [15] [µM] | TGI [16] [µM] | TGI [17] [µM] | TGI [18] [µM] | TGI [19] [µM] | TGI [20] [µM]
1 | CC(OC1CC(=O)CC2C(=O)C=CC(=O)C12)c1ccccc1 (stereo not given) | > 59.4 | > 100 | > 55.9 | 33.3 | 24.1 | 31.9 | 42.8 | 33.3 | 30.6 | 34.9 | 32 | 58.5 | 33.2 | 34.5 | 33 | 31 | > 49.2 | 34.9 | – | –
2 | CSC1=C(C#N)C(=O)N(c2ccc(Cl)cc2)C(=O)C1C#N (stereo not given) | > 100 | > 100 | > 100 | > 100 | > 100 | > 100 | > 100 | > 100 | > 100 | > 100 | > 100 | > 100 | > 100 | > 100 | > 100 | – | > 100 | > 100 | > 100 | > 100
3 | O=C1N[C@H]2C(=O)c3c(Cl)sc(Cl)c3[C@H]2O1 | 39.4 | 5.09 | 29.9 | 19.6 | 21 | 9.7 | 6.71 | 3.54 | 3.85 | 43.4 | 60.5 | 59.1 | 30.3 | 20.6 | 6.23 | – | 8.22 | 33 | 14.7 | 67.1
4 | CC(C)(Cl)C(Br)CCC(CBr)=C(Cl)CCl (mixture of isomers) | > 10 | 3.75 | 9.73 | 3.49 | > 8.98 | 5.67 | 2.55 | > 5.48 | > 10 | 4.41 | > 5.56 | 4.39 | 0.971 | 4.07 | 3.77 | – | 1.96 | 4.13 | 3.74 | > 10
5 | COc1cc(C(C#N)NNC(=O)Cc2ccccc2)cc(OC)c1OC (stereo not given) | > 100 | > 100 | – | > 100 | > 100 | > 100 | > 100 | > 100 | – | > 100 | – | > 100 | > 100 | > 100 | > 100 | > 100 | > 100 | > 100 | – | –
6 | Cc1cc(Cl)ccc1NC(=O)C(=O)Cc1ccc([N+](=O)[O-])c([N+](=O)[O-])c1CC(=O)C(=O)Nc1ccc(Cl)cc1C | > 100 | > 100 | > 100 | > 100 | > 100 | > 100 | > 100 | > 100 | > 100 | > 100 | > 100 | > 100 | > 100 | > 100 | > 100 | > 100 | > 100 | > 100 | – | –
7 | CC(=O)Nc1ccc(-c2nc3ccccc3s2)cc1Cl | > 100 | > 100 | > 100 | > 100 | > 100 | > 100 | > 100 | > 100 | > 100 | > 100 | > 100 | > 100 | > 100 | > 100 | > 100 | – | > 100 | > 100 | > 100 | 93.3
8 | Cc1ccc(-c2cn3c(nc4ccccc43)c(-c3ccccc3)n2)cc1 | > 100 | > 100 | 48.7 | > 100 | > 100 | > 100 | > 100 | > 100 | > 100 | 58.3 | > 86.5 | > 100 | > 100 | > 100 | > 100 | – | > 100 | > 100 | > 100 | > 77.2
9 | Cc1nc2c(=O)n(C)c(=O)nc-2n(CCO)c1C | > 100 | > 100 | > 100 | > 100 | > 100 | > 100 | > 100 | > 100 | > 100 | > 100 | > 100 | > 100 | > 100 | > 100 | > 100 | – | > 100 | > 100 | > 100 | > 100
10 | CC(C)c1cccc(C(C)C)c1NC(=O)C(=O)CC(=O)CC(c1ccccc1)c1c(O)c2ccccc2oc1=O (stereo not given) | > 100 | > 100 | > 100 | > 100 | > 100 | > 100 | > 100 | > 100 | > 100 | > 100 | > 100 | > 100 | > 100 | > 100 | > 100 | > 100 | > 100 | > 100 | – | –
11 | Nc1ccc(C(=O)NN2C(=O)C(Cl)C2c2cc(Br)cc(Br)c2O)cc1 (stereo not given) | > 100 | – | > 100 | 28.2 | 61.9 | 64 | > 100 | – | 59.5 | > 100 | – | > 100 | – | 57 | > 100 | > 100 | > 100 | 97.9 | – | –
12 | Fc1ccc2c(c1)SC1Oc3ccccc3-c3c1c-2nn3-c1ccccc1 (stereo not given) | > 100 | > 100 | – | – | > 100 | – | – | > 100 | > 100 | > 100 | > 100 | > 100 | – | > 100 | > 100 | > 100 | > 100 | > 100 | – | –
13 | COc1cc2c(cc1O)[C@H](C)C(c1ccccc1OC)O2 (stereo not given in full) | 4.2 | > 100 | > 100 | > 100 | 23.9 | 69.2 | – | > 100 | > 100 | – | 56 | 13.9 | – | 41.5 | 61.3 | 24.4 | – | > 100 | – | –
14 | Cc1ccc(/C=C/C(=O)C(C)C)cc1 | > 100 | > 100 | > 100 | > 100 | > 100 | – | 98.4 | 83.1 | > 100 | > 100 | > 100 | 72.7 | – | – | > 100 | > 100 | 76.9 | – | – | –
15 | COc1ccc(C2C3=C(COC3=O)OC(C)(C)Oc3cc4c(cc32)OCO4)cc1 (stereo not given) | > 92.6 | > 61.6 | > 100 | > 100 | > 100 | > 86.9 | > 100 | > 100 | > 92.7 | > 100 | 85.2 | > 100 | > 100 | > 72.7 | > 100 | – | > 83.8 | > 100 | 8.97 | > 100
16 | N#CC(c1ccccc1)N(CCc1ccccc1)C(=O)c1ccccc1 (stereo not given) | > 100 | > 100 | > 81 | > 100 | > 100 | > 100 | > 100 | > 100 | > 100 | > 100 | > 100 | > 100 | > 100 | > 84.7 | > 100 | – | > 100 | > 100 | > 100 | 86.3
17 | CCOC(=O)/C(=C\c1ccnc2ccccc12)P(=O)(OCC)OCC | 8.72 | 9.96 | 15.3 | 5.02 | 4.82 | 7.66 | 5.38 | 4.52 | 15.1 | 4.49 | 5.98 | 5.93 | 9.19 | 3.32 | 4.62 | – | > 100 | 3.71 | 6.74 | 8.63
18 | C=CCOc1ccc(C2(c3ccc(OCC=C)cc3)C(=O)Nc3ccccc32)cc1 | > 10 | > 10 | > 10 | > 10 | > 10 | > 10 | > 10 | > 10 | > 10 | > 10 | > 10 | > 10 | > 10 | > 10 | > 10 | – | > 10 | > 10 | > 10 | 6.38
19 | O=c1oc2ccccc2cc1-c1csc(Nc2cc(Cl)cc(Cl)c2)n1 | > 100 | > 100 | > 52.8 | > 72.2 | 4.38 | > 32.4 | > 100 | 35.2 | > 100 | > 100 | 65.6 | > 100 | > 44.8 | 5.16 | 14.2 | – | > 100 | 64.8 | > 100 | 98.1
20 | COc1cc2c(cc1OC)C(=O)Cc1ccc3c(c1CNCC2)OCO3 | > 100 | > 100 | > 100 | > 100 | > 100 | > 100 | – | > 100 | > 100 | > 100 | > 100 | > 100 | > 100 | > 100 | > 100 | > 100 | > 100 | > 100 | – | –
21 | CCN(CC)CCOc1ccc(N2Cc3ccccc3C2=O)cc1 | > 10 | > 10 | > 10 | > 10 | > 10 | > 10 | > 10 | > 10 | > 10 | > 10 | > 10 | > 10 | > 10 | > 10 | > 10 | – | > 10 | > 10 | > 10 | > 10
22 | Cc1nc2nn(Cc3ccccc3)cc2c(=O)o1 | > 100 | > 100 | > 100 | – | > 100 | – | – | > 100 | > 100 | > 100 | > 100 | > 100 | > 100 | > 100 | > 100 | > 100 | > 100 | > 100 | – | –
23 | FC(F)(F)c1ccc2c(c1)nc(Cc1ccc(Cl)c(Cl)c1)n2CC1CCCN2CCCCC12 (stereo not given) | 52.4 | > 100 | 53.1 | 25.2 | > 100 | > 100 | 74.6 | 82.3 | 80.3 | 76.3 | 67.6 | > 100 | 42.8 | 40 | 28.2 | – | > 100 | 28.6 | 38.8 | 34.4
24 | N#Cc1nc(Sc2cnsn2)c(Sc2cnsn2)nc1C#N | > 60.9 | > 81.8 | > 78.1 | 60.7 | 16 | 12.5 | > 100 | 22.1 | 36.7 | 47 | 43.8 | > 100 | 56.3 | 41.4 | 47.6 | – | > 30.1 | 33.3 | 49.6 | 43
25 | OC12CC3c4ccccc4NC3C3Oc4cccc5c4C31CCN(CC1CC1)C2C5 (stereo not given) | 32.4 | 52.6 | 36.8 | 33.8 | 34.5 | 32.4 | 59 | 30.7 | 87.7 | 35 | 32.2 | 48.2 | 34.4 | 90.5 | 34.2 | – | 73.1 | 34.9 | 35.1 | 46.3
26 | C/C(=N/NC(=S)N(C)CCc1ccccn1)c1cnccn1 | 13 | > 100 | 19 | 7.37 | 3.51 | 10.5 | > 100 | 19 | 12.8 | 26.9 | > 100 | 26.1 | 10 | 28 | 11.9 | – | > 71.1 | 5.11 | 20.9 | 53.9
